The results in this text go back to ChEMBL document CHEMBL3045941, “-Methyl as a bioisostere for the oxygen link between the aromatic rings of aryloxyphenoxypropionate herbicides” (Bioorg Med Chem Lett, 1997).

The subject of data set [1] is Avena fatua. Briefly: Post-emergent herbicidal activity against Avena fatua at <2 g/ha measured after 13 days under green house conditions. The class given is functional, organism-based.
For data set [2], the system named is Oryza sativa. Kind of data set: Phytotoxicity against Oryza sativa (rice) plant at two to four-leaf growth stage at <2 g/ha measured after 13 days under green house conditions. The class given is organism-based. The conditions noted are these: in vivo, 312 h.
Data set [3] concerns Echinochloa crus-galli. Kind of data set: Post-emergent herbicidal activity against Echinochloa crus-galli (barnyard grass) at 100 g/ha measured after 13 days under green house conditions. The class given is functional.
Data set [4] concerns Triticum aestivum. Kind of data set: Phytotoxicity against Triticum aestivum (wheat) at two to four-leaf growth stage at 100 g/ha measured after 13 days under green house conditions. The class given is organism-based. The conditions noted are these: in vivo, 312 h.
The subject of data set [5] is Sorghum halepense. Briefly: Post-emergent herbicidal activity against Sorghum halepense (Johnson grass) at <2 g/ha measured after 13 days under green house conditions. The class given is functional, organism-based.
Data set [6] relates to Zea mays. Kind of data set: Phytotoxicity against Zea mays (maize) plant at two to four-leaf growth stage at 100 g/ha measured after 13 days under green house conditions. The class given is organism-based. The conditions noted are these: in vivo, 312 h.
Data set [7] deals with Oryza sativa. Kind of data set: Phytotoxicity against Oryza sativa (rice) plant at two to four-leaf growth stage at 100 g/ha measured after 13 days under green house conditions. The class given is organism-based. The conditions noted are these: in vivo, 312 h.
In data set [8] the test system is Setaria viridis. Kind of data set: Post-emergent herbicidal activity against Setaria viridis (green foxtail) at 100 g/ha measured after 13 days under green house conditions. The class given is functional.
Data set [9] deals with Echinochloa crus-galli. Briefly: Post-emergent herbicidal activity against Echinochloa crus-galli (barnyard grass) at <2 g/ha measured after 13 days under green house conditions. The class given is functional, organism-based.
Data set [10] relates to Setaria viridis. Kind of data set: Post-emergent herbicidal activity against Setaria viridis (green foxtail) at <2 g/ha measured after 13 days under green house conditions. The class given is functional, organism-based.
Data set [11] relates to Zea mays. Briefly: Phytotoxicity against Zea mays (maize) plant at two to four-leaf growth stage at <2 g/ha measured after 13 days under green house conditions. The class given is organism-based. The conditions noted are these: in vivo, 312 h.
Data set [12] has as its system Avena fatua. Briefly: Post-emergent herbicidal activity against Avena fatua at 100 g/ha measured after 13 days under green house conditions. The class given is functional.
The test system of data set [13] is Sorghum halepense. Kind of data set: Post-emergent herbicidal activity against Sorghum halepense (Johnson grass) at 100 g/ha measured after 13 days under green house conditions. The class given is functional.
Data set [14] concerns Triticum aestivum. Kind of data set: Phytotoxicity against Triticum aestivum (wheat) at two to four-leaf growth stage at <2 g/ha measured after 13 days under green house conditions. The class given is organism-based. The conditions noted are these: in vivo, 312 h.
In data set [15] the test system is Setaria viridis. Briefly: Post-emergent herbicidal activity against Setaria viridis (green foxtail) at 250 g/ha measured after 13 days under green house conditions. The class given is functional.
Data set [16] concerns Echinochloa crus-galli. Kind of data set: Post-emergent herbicidal activity against Echinochloa crus-galli (barnyard grass) at 250 g/ha measured after 13 days under green house conditions. The class given is functional.
Data set [17] has as its system Sorghum halepense. Kind of data set: Post-emergent herbicidal activity against Sorghum halepense (Johnson grass) at 250 g/ha measured after 13 days under green house conditions. The class given is functional.
Data set [18] concerns Oryza sativa. Kind of data set: Phytotoxicity against Oryza sativa (rice) plant at two to four-leaf growth stage at 250 g/ha measured after 13 days under green house conditions. The class given is organism-based. The conditions noted are these: in vivo, 312 h.
Data set [19] relates to Zea mays. Kind of data set: Phytotoxicity against Zea mays (maize) plant at two to four-leaf growth stage at 250 g/ha measured after 13 days under green house conditions. The class given is organism-based. The conditions noted are these: in vivo, 312 h.
Data set [20] deals with Triticum aestivum. Kind of data set: Phytotoxicity against Triticum aestivum (wheat) at two to four-leaf growth stage at 250 g/ha measured after 13 days under green house conditions. The class given is organism-based. The conditions noted are these: in vivo, 312 h.
Data set [21] relates to Avena fatua. Kind of data set: Post-emergent herbicidal activity against Avena fatua at 250 g/ha measured after 13 days under green house conditions. The class given is functional.
The test system of data set [22] is Sorghum halepense. Briefly: Post-emergent herbicidal activity against Sorghum halepense (Johnson grass) at 50 g/ha measured after 13 days under green house conditions. The class given is functional.
Data set [23] relates to Sorghum halepense. Kind of data set: Post-emergent herbicidal activity against Sorghum halepense (Johnson grass) at 12.5 g/ha measured after 13 days under green house conditions. The class given is functional.
Data set [24] relates to Setaria viridis. Kind of data set: Post-emergent herbicidal activity against Setaria viridis (green foxtail) at 50 g/ha measured after 13 days under green house conditions. The class given is functional.
Data set [25] concerns Zea mays. Kind of data set: Phytotoxicity against Zea mays (maize) plant at two to four-leaf growth stage at 50 g/ha measured after 13 days under green house conditions. The class given is organism-based. The conditions noted are these: in vivo, 312 h.
Data set [26] relates to Setaria viridis. Briefly: Post-emergent herbicidal activity against Setaria viridis (green foxtail) at 12.5 g/ha measured after 13 days under green house conditions. The class given is functional.
Data set [27] relates to Oryza sativa. Kind of data set: Phytotoxicity against Oryza sativa (rice) plant at two to four-leaf growth stage at 12.5 g/ha measured after 13 days under green house conditions. The class given is organism-based. The conditions noted are these: in vivo, 312 h.
In data set [28] the test system is Triticum aestivum. Kind of data set: Phytotoxicity against Triticum aestivum (wheat) at two to four-leaf growth stage at 50 g/ha measured after 13 days under green house conditions. The class given is organism-based. The conditions noted are these: in vivo, 312 h.
Data set [29] concerns Echinochloa crus-galli. Kind of data set: Post-emergent herbicidal activity against Echinochloa crus-galli (barnyard grass) at 50 g/ha measured after 13 days under green house conditions. The class given is functional.
Data set [30] relates to Oryza sativa. Briefly: Phytotoxicity against Oryza sativa (rice) plant at two to four-leaf growth stage at 50 g/ha measured after 13 days under green house conditions. The conditions noted are these: in vivo, 312 h. The class given is organism-based.
Data set [31] concerns Triticum aestivum. Briefly: Phytotoxicity against Triticum aestivum (wheat) at two to four-leaf growth stage at 12.5 g/ha measured after 13 days under green house conditions. The class given is organism-based. The conditions noted are these: in vivo, 312 h.
The test system of data set [32] is Avena fatua. Kind of data set: Post-emergent herbicidal activity against Avena fatua at 50 g/ha measured after 13 days under green house conditions. The class given is functional.
Data set [33] relates to Echinochloa crus-galli. Briefly: Post-emergent herbicidal activity against Echinochloa crus-galli (barnyard grass) at 12.5 g/ha measured after 13 days under green house conditions. The class given is functional.
Data set [34] concerns Zea mays. Kind of data set: Phytotoxicity against Zea mays (maize) plant at two to four-leaf growth stage at 12.5 g/ha measured after 13 days under green house conditions. The conditions noted are these: in vivo, 312 h. The class given is organism-based.
In data set [35] the test system is Avena fatua. Briefly: Post-emergent herbicidal activity against Avena fatua at 12.5 g/ha measured after 13 days under green house conditions. The class given is functional.
Data set [36] has as its target Acetyl-CoA carboxylase (Hordeum vulgare) (UniProt Q3V4F7+Q3V4I7+Q947J4+Q947J5+Q40010+Q5S741+Q5S747). Briefly: Inhibition of acetyl-CoA carboxylase in Hordeum vulgare (barley) leaves. The class given is protein assay.

Calls of active or inactive are those of the source. The calls are words filed in the database; no cut-off is given here.

Take `CCOC(=O)C(C)Oc1ccc(N(C)c2nc3ccccc3o2)cc1` (racemic): the outcome in data set [1], in [5], in data set [9] and in data set [10] was inactive. For the same compound, the Activity entry is “Non-toxic” in [2]; 100% in data set [3]; 85% in data set [4]; 100% in data set [6]; 30% in data set [7]; 85% in data set [8]. The Activity result in [11] is “Non-toxic”; in data set [12] it was 70%; in [13], 100%; in [14], “Non-toxic”.
Take `COC(=O)C(C)Oc1ccc(N(C)c2ncc(Cl)cn2)cc1` (racemic): the outcome in data set [1], in data set [5], in data set [9] and in [10] was inactive. In addition, the Activity result in data set [2] is reported as “Non-toxic”; in data set [15], 85%; in data set [16], 100%; in data set [17], 85%; in data set [18] it was 70%; in [11], “Non-toxic”. Moreover, the Activity is listed as 85% in data set [19], 85% in data set [20], “Non-toxic” in [14] and 85% in data set [21].
With `CCOC(=O)C(C)Oc1ccc(N(C)c2ncc3cc(Cl)ccc3n2)cc1` (racemic), the result in [1], in data set [5], in data set [9] and in [10] was inactive. Moreover, the Activity entry in data set [2] is “Non-toxic”; in [22] it was 98%; in data set [23], 65%; in data set [24], 98%; in data set [25] it was 65%; in data set [26], 65%. Moreover, the Activity in [27] was found to be 0%; in [28], 65%; in [29] it was 85%; in data set [30], 35%; in data set [31], 35%; in data set [32], 15%. Further, the Activity is 98% in [33]; “Non-toxic” in data set [11]; 15% in data set [34]; “Non-toxic” in data set [14]; 0% in data set [35]; 1.5 µM in data set [36].
